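Following 48 hours of exposure in 96-well plates, responses at five concentrations were used to interpolate endpoints linearly. GI50 = concentration required for 50% inhibition of growth. The concentration for full growth arrest is given as TGI.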
Assays:
Experiment in all cases: inhibition of tumour cell growth, NCI panel, 48 h
M14 melanoma = test system: M14 melanoma
HT29 colon = test system: HT29 colon
SF-539 CNS = test system: SF-539 CNS
OVCAR-4 ovarian = test system: OVCAR-4 ovarian
SR leukemia = test system: SR leukemia
SN12C renal = test system: SN12C renal
SK-MEL-5 melanoma = test system: SK-MEL-5 melanoma
HOP-62 NSCLC = test system: HOP-62 NSCLC
ACHN renal = test system: ACHN renal
OVCAR-8 ovarian = test system: OVCAR-8 ovarian
786-0 renal = test system: 786-0 renal
IGROV1 ovarian = test system: IGROV1 ovarian
UACC-62 melanoma = test system: UACC-62 melanoma
HOP-92 NSCLC = test system: HOP-92 NSCLC
MDA-N = test system: MDA-N
DU-145 prostate = test system: DU-145 prostate
NCI/ADR-RES ovarian = test system: NCI/ADR-RES ovarian
BT-549 breast = test system: BT-549 breast

| SMILES | TGI (M14 melanoma) [µM] | TGI (HT29 colon) [µM] | TGI (SF-539 CNS) [µM] | TGI (OVCAR-4 ovarian) [µM] | TGI (SR leukemia) [µM] | TGI (SN12C renal) [µM] | TGI (SK-MEL-5 melanoma) [µM] | TGI (HOP-62 NSCLC) [µM] | TGI (ACHN renal) [µM] | TGI (OVCAR-8 ovarian) [µM] | TGI (786-0 renal) [µM] | TGI (IGROV1 ovarian) [µM] | TGI (UACC-62 melanoma) [µM] | TGI (HOP-92 NSCLC) [µM] | GI50 (SK-MEL-5 melanoma) [µM] | TGI (MDA-N) [µM] | TGI (DU-145 prostate) [µM] | TGI (NCI/ADR-RES ovarian) [µM] | TGI (BT-549 breast) [µM] |
| --- | --- | --- | --- | --- | --- | --- | --- | --- | --- | --- | --- | --- | --- | --- | --- | --- | --- | --- | --- |
| CC1=NN(C(=O)Cc2ccccc2)C(=O)/C1=C\C=C\c1ccccc1 | > 100 | > 100 | > 100 | > 100 | > 100 | > 100 | > 100 | > 100 | > 100 | > 100 | > 100 | – | – | – | – | – | – | – | – |
| O=C(c1ccncc1)n1nc(-c2ccccc2)c(N=Nc2ccc([N+](=O)[O-])cc2)c1-c1ccccc1 | > 100 | > 100 | > 100 | 28.2 | > 100 | > 100 | > 100 | > 100 | – | > 100 | > 100 | > 100 | > 100 | > 100 | – | – | – | – | – |
| CC(C)(C)[C@H]1CO[C@]2(C)[C@@H]3C[C@@H]3C(=O)N12 | > 100 | > 100 | > 100 | > 100 | > 100 | > 100 | > 100 | > 100 | > 100 | > 100 | > 100 | > 100 | > 100 | > 100 | – | – | – | – | – |
| CCOC(=O)CC[C@@H](NC(=O)c1ccc(N[C@@H]2c3cc4c(cc3C(c3cc(OC)c(O)c(OC)c3)C3C(=O)OC[C@@H]32)OCO4)cc1)C(=O)OCC (some centres not stated) | > 10 | 0.751 | 0.0478 | – | > 10 | 0.0897 | 0.144 | 0.0424 | 0.0379 | – | > 10 | 0.32 | 0.0557 | 0.0808 | – | – | – | – | – |
| COC(=O)CC1C(=O)OCc2c1cc1n(c2=O)Cc2c-1nc1ccccc1c2OC (configuration not stated) | > 100 | > 100 | – | > 100 | 40.8 | > 100 | > 100 | > 100 | > 100 | > 100 | > 100 | > 100 | > 100 | > 100 | – | – | – | – | – |
| CCC1(N=[N+]=[N-])C(=O)Nc2cc(C)ccc2C1=O (configuration not stated) | > 100 | > 100 | > 100 | > 100 | – | > 100 | > 100 | > 100 | 51.2 | > 100 | > 100 | > 100 | > 100 | > 100 | – | – | – | – | – |
| [N-]=[N+]=NC1C(Br)C(=O)NC(=O)N1[C@H]1C[C@H](O)[C@@H](CO)O1 (some centres not stated) | > 100 | > 100 | > 100 | > 100 | – | > 100 | > 100 | > 100 | > 100 | > 100 | > 100 | > 100 | > 100 | > 100 | 42.2 | – | – | – | – |
| Cc1cc2oc(=O)[nH]c(=S)c2c(C)c1C | > 100 | > 100 | > 100 | > 100 | > 100 | > 100 | – | > 100 | > 100 | > 100 | > 100 | > 100 | > 100 | > 100 | – | – | – | – | – |
| CNC(=O)c1n[nH][nH]c1=O | > 100 | > 100 | – | – | > 100 | > 100 | > 100 | > 100 | > 100 | > 100 | > 100 | > 100 | > 100 | > 100 | – | > 100 | > 100 | > 100 | – |
| COC[n+]1cc2cc(OC)c(OC)cc2c2ccc3cc(OC)c(OC)cc3c21 | > 100 | > 100 | > 100 | > 100 | – | > 100 | > 100 | > 100 | > 100 | > 100 | > 100 | > 100 | > 100 | > 100 | – | – | – | – | – |
| COc1cc2[nH]c(-c3cccc(N(C)C)c3)cc(=O)c2cc1OC | > 100 | > 25.9 | > 21.3 | > 100 | > 100 | > 100 | > 100 | > 100 | > 100 | > 100 | > 100 | > 100 | > 100 | > 100 | – | – | – | – | – |
| O=C1CCC2SC1CCC2=O | > 100 | > 100 | > 100 | > 100 | – | > 100 | > 100 | > 100 | > 100 | > 100 | > 100 | > 100 | – | > 100 | – | – | > 100 | > 100 | > 100 |
| CCOC(=O)c1c(NC(=O)Nc2ccccc2)c(C(N)=O)c2n1CCCCC2 | > 100 | > 100 | > 100 | > 100 | > 100 | – | > 100 | > 100 | > 100 | > 100 | > 100 | > 100 | > 100 | > 100 | – | – | > 100 | > 100 | > 100 |
| O=c1cc(-c2cccc(OC(F)(F)F)c2)[nH]c2cc3c(cc12)OCO3 | > 35.7 | 26.6 | 0.204 | – | – | > 100 | 0.336 | > 47.8 | > 100 | > 52.2 | 0.75 | 16.3 | – | > 73.6 | – | – | > 100 | 0.236 | 33.5 |
| CCN(CC)Cc1cc(Nc2c3ccccc3nc3c2[nH]c2ccccc23)ccc1O | 3.11 | 2.01 | 2.74 | 3.32 | 1.01 | 6.22 | 3.51 | 3.16 | 3.53 | 3.11 | 2.8 | 4.49 | 3.01 | 3.46 | – | – | – | – | – |
| COC(=O)c1c(C(=O)OC)c2cc(C(=O)c3ccccc3)ccn2c1Cl | > 100 | > 100 | > 100 | > 100 | 40.5 | > 100 | 33.2 | > 100 | > 100 | > 100 | > 100 | > 100 | 88.4 | – | – | – | – | – | – |

Source: PubChem BioAssay (NCI)
